In the NIST ThermoML archive (doi:10.1021/je800251v):

Details: Liquid

CCOC(=O)CC [ethyl propanoate]
mass density [kg/m3]
Details | 333.15 K | 338.15 K | 343.15 K | 348.15 K | 353.15 K | 363.15 K | 373.15 K | 383.15 K | 393.15 K
100 kPa | – | 836.9 | 831.1 | 824.9 | 818.7 | 803.5 | 790.9 | – | –
1000 kPa | – | 838.2 | 832.2 | 826 | 819.9 | 805.1 | 792.6 | 780 | 766.4
2000 kPa | – | 839.5 | 833.5 | 827.4 | 821.3 | 806.9 | 794.5 | 782.1 | 768.7
3000 kPa | – | 840.7 | 834.8 | 828.8 | 822.7 | 808.7 | 796.4 | 784.1 | 770.8
3340 kPa | – | 841.1 | 835.2 | 829.3 | 823.2 | 809.3 | 797.1 | 784.8 | 771.5
5000 kPa | – | 843.1 | 837.4 | 831.5 | 825.6 | 812 | 800 | 787.9 | 775
10000 kPa | – | 848.8 | 843.4 | 837.7 | 832.1 | 819.6 | 808.2 | 796.6 | 784.5
15000 kPa | – | 854.4 | 848.9 | 843.4 | 838 | 826.5 | 815.6 | 804.6 | 793.1
20000 kPa | – | 859.4 | 854 | 848.8 | 843.5 | 833 | 822.5 | 811.9 | 800.8
25000 kPa | – | 863.6 | 859.1 | 854 | 848.9 | 839.1 | 829 | 818.7 | 808
30000 kPa | – | 869.9 | 865 | 860.1 | 855.3 | 844.8 | 834.9 | 825 | 814.7
35000 kPa | 880.6 | 875.8 | 871 | 866.3 | 861.6 | 850.2 | 840.6 | 830.9 | 820.9
